Measurements from patent US10722515B2, “Dual CLK/CDK1 inhibitors for cancer treatment” (SRI INTERNATIONAL, priority 2016, dated 2020).
Where two headings read alike, the source gives them in different places.

Experiments:
CLK2(h) = target: T1, CLK2(h) (Homo sapiens, UniProt P49760); test: radiometric protein kinase assay, CLK2; assay type: biochemical; settings: enzyme inhibition, ATP 10 μM
T1 construct: purchased Eurofins, Dundee, Scotland
Experimental: (§1) Enzymatic biochemical activities were evaluated in radiometric protein kinase assays (Eurofins, Dundee, Scotland). Kinases are incubated with buffer, substrate and [γ-^33P]-ATP (specific activity approx. 500 cpm/pmol, concentration as required). The reaction is initiated by the addition of the MgATP mix. After incubation for 40 minutes at room temperature, the reaction is stopped by the addition of 3% phosphoric acid solution. 10 μL of the reaction is then spotted onto a P30 filtermat and washed three times for 5 minutes in 75 mM phosphoric acid and once in methanol prior to drying and scintillation counting.
(§2) All compounds are prepared to 50× final assay concentration in 100% DMSO. Positive control wells contain all components of the reaction with 2% DMSO. Blank wells contain all components of the reaction, with a reference inhibitor replacing the compound of interest. Each kinase is assigned a standard assay concentration of ATP within 20 μM of its apparent KM. Compounds were screened at 1 μM in duplicate or tested at 10 concentrations at half log dilution starting from 10 μM in singlicate. Dose response curves were fitted with four parameter logistic curve to obtain IC50 values. The average coefficient of variation (CV) of the conducted assay is 4.4%.

CDK4/cyclinD3(h) = target: T2, CDK4/cyclinD3(h) (Homo sapiens, UniProt P11802); test: radiometric protein kinase assay, CDK4; assay type: biochemical; settings: enzyme inhibition, ATP 20 μM
T2 construct: purchased Eurofins, Dundee, Scotland
T2 sequence (P11802 whole entry): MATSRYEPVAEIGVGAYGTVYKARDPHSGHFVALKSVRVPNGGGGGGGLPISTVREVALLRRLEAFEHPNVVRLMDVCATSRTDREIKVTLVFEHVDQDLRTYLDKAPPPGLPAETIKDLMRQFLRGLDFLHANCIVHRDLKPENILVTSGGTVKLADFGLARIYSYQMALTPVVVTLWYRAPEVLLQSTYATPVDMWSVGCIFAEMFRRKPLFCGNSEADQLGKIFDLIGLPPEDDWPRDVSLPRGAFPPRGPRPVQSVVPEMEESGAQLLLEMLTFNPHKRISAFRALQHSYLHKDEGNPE
T2 sequence (P30281 whole entry partner): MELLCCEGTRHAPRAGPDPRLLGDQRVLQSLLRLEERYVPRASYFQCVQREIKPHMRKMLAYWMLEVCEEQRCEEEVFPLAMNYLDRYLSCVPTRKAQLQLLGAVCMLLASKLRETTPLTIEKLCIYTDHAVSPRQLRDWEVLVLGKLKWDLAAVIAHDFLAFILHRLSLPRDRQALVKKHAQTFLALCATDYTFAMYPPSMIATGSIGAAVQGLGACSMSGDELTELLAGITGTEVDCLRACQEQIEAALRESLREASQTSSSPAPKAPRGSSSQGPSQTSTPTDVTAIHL
Experimental: as §1, §2

CDK1/cyclinB(h) = target: T3, CDK1/cyclinB(h) (Homo sapiens, UniProt P06493); test: radiometric protein kinase assay, CDK1; assay type: biochemical; settings: enzyme inhibition, ATP 45 μM
T3 construct: purchased Eurofins, Dundee, Scotland
T3 sequence (P06493 whole entry): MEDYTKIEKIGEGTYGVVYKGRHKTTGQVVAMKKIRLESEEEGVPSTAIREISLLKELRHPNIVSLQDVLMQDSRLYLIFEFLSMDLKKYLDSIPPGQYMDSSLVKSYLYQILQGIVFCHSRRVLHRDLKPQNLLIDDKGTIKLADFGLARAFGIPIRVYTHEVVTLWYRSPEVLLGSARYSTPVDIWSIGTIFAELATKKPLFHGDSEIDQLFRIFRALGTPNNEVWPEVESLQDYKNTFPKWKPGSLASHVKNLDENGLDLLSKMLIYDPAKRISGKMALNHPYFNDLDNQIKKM
T3 sequence (P14635 whole entry partner): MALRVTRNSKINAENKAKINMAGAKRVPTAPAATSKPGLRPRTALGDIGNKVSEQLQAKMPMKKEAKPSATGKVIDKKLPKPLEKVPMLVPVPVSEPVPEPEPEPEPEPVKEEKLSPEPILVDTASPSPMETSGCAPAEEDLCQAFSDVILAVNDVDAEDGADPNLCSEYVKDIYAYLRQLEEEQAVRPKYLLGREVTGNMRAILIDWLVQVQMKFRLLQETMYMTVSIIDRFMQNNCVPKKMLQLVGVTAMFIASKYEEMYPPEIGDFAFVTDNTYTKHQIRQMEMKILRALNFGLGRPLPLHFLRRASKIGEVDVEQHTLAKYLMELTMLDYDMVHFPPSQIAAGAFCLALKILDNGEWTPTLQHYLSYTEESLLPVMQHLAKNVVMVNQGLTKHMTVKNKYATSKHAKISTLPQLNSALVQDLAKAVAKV
Experimental: as §1, §2

CLK1(h) = target: T4, CLK1(h) (Homo sapiens, UniProt P49759); test: radiometric protein kinase assay, CLK1; assay type: biochemical; settings: enzyme inhibition, radiometric, ATP 10 μM; read-out: IC50 (nM) CLK1
T4 construct: purchased Eurofins, Dundee, Scotland
T4 sequence (P49759 whole entry): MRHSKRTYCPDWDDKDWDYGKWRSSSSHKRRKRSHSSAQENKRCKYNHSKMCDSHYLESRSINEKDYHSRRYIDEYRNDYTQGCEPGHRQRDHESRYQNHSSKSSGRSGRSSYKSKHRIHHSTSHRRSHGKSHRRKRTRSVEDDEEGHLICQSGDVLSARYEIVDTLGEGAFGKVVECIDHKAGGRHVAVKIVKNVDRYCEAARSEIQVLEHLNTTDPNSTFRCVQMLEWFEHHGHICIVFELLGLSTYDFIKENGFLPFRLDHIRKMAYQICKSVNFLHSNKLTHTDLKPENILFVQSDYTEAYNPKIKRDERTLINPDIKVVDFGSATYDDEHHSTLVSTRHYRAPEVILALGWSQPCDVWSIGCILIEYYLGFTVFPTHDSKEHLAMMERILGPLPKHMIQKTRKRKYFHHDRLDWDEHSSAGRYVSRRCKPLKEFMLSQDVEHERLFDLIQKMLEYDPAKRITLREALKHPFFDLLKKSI
Experimental: as §1, §2

CDK6/cyclinD3(h) = target: T5, CDK6/cyclinD3(h) (Homo sapiens, UniProt Q00534); test: radiometric protein kinase assay, CDK6; assay type: biochemical; settings: enzyme inhibition, ATP 20 μM
T5 construct: purchased Eurofins, Dundee, Scotland
T5 sequence (Q00534 whole entry): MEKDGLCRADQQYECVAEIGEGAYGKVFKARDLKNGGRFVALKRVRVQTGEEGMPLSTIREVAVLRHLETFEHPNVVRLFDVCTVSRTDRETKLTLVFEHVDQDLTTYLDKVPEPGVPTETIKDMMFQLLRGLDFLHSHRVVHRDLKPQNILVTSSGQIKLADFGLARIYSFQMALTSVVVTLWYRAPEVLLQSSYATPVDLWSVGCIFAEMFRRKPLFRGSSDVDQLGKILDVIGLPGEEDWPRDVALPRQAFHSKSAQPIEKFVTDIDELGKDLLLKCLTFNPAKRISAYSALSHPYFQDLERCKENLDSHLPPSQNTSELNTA
T5 sequence (P30281 whole entry partner): as the sequence (P30281 whole entry partner) above
Experimental: as §1, §2

[1] = system: SK-MEL-2/Luc-MDM2 cells (MDM2-Luc exon-skipping reporter); test: cell-based MDM2-Luc exon-skipping reporter assay; settings: for MDM2/Luc: luciferase activation vs DMSO control, average of three experiments; for activity in the MDM2-Luc assay: at 10 μM; for MDM2-Luc activity: result in words, no concentration stated
CLK3(h) = target: T6, CLK3(h) (Homo sapiens, UniProt P49761); test: radiometric protein kinase assay, CLK3; assay type: biochemical
T6 construct: purchased Eurofins, Dundee, Scotland
T6 sequence (P49761 whole entry): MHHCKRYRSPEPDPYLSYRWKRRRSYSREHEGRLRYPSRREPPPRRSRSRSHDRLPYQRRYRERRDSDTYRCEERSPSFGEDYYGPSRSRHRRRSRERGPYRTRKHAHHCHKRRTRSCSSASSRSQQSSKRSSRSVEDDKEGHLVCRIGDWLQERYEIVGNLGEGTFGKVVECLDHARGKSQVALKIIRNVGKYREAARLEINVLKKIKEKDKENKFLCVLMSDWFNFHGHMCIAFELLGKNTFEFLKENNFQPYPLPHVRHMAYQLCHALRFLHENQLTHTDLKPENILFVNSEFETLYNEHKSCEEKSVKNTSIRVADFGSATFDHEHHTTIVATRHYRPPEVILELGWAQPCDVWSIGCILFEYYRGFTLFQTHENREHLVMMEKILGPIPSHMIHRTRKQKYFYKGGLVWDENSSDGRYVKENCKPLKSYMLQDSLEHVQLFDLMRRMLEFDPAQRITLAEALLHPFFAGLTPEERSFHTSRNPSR
Experimental: as §1, §2

CLK4(h) = target: T7, CLK4(h) (Homo sapiens, UniProt Q9HAZ1); test: radiometric protein kinase assay, CLK4; assay type: biochemical; settings: enzyme inhibition, ATP 10 μM
T7 construct: purchased Eurofins, Dundee, Scotland
T7 sequence (Q9HAZ1 whole entry): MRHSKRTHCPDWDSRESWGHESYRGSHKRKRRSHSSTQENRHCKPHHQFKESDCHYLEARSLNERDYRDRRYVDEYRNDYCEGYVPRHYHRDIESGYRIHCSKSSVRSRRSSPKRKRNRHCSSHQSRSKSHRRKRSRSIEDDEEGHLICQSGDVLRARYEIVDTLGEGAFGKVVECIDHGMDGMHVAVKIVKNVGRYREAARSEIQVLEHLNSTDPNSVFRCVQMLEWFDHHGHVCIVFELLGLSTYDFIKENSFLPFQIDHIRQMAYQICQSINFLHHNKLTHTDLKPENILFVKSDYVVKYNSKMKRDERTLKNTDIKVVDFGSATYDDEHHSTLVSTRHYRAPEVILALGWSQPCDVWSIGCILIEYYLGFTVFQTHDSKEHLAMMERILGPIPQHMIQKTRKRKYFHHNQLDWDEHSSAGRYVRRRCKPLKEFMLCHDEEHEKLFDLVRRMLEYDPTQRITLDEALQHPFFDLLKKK
Experimental: as §1, §2

[2] = system: MDM2 alternate splicing in Rh-18 cells; test: Rh-18 MDM2 RT-PCR gel-based assay (orthogonal secondary assay); assay type: cell-based; settings: 10 μM, 8 h
Experimental: These hits were then subjected to a confirmatory assay in the Rh-18 MDM2 RT-PCR gel-based assay at a concentration of 10 μM.
Referring to FIG. 6, cells were exposed to 0.5% DMSO, 0.2 μM sudemycin D6 or […] CGP-74514A for 8 h. Total RNA was extracted by RNeasy Mini Kit (Qiagen). High capacity RNA-to-cDNA kit (Life technologies) was used to convert the RNA to cDNA.
Referring to FIG. 7, cells were exposed to 0.5% DMSO (lane 1), 1 μM sudemycin D6 (lane 2), 10 μM Compound 14 (lane 3), and 10 μM Compound 15 (lane 4) for 8 h. The total RNA was extracted by RNeasy Mini Kit (Qiagen). High capacity RNA-to-cDNA kit (Life technologies) was used to convert the RNA to cDNA. […] Ubiquitin transcripts (165 bp) in the same cells were used as a control (Fan et al. (2011) ACS Chem. Biol. 6: 582-9).

[3] = enzyme inhibition, radiometric, ATP 90 μM, read-out: IC50 (nM) CLK3

T1 sequence (P49760 whole entry): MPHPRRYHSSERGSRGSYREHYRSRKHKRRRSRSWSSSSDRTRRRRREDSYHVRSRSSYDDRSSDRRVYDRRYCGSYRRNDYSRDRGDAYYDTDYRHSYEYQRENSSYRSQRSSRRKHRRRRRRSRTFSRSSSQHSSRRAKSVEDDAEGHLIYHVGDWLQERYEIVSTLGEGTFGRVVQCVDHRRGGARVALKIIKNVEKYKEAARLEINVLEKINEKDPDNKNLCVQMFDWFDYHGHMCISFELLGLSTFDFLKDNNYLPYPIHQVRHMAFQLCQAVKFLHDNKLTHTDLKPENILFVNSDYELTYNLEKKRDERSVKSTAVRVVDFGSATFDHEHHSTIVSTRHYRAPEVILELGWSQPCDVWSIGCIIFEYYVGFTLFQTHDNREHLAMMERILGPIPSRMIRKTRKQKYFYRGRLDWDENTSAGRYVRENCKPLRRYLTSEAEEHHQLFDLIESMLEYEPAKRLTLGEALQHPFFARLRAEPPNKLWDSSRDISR

Compound	IC50 (CLK2(h)) [nM]	IC50 (CDK4/cyclinD3(h)) [nM]	IC50 (CDK1/cyclinB(h)) [nM]	IC50 (CLK1(h)) [nM]	IC50 (CDK6/cyclinD3(h)) [nM]	MDM2/Luc [1]	IC50 (CLK3(h); [3]) [nM]	IC50 (CLK4(h)) [nM]	activity in the MDM2-Luc assay [1]	IC50 (CLK3(h)) [nM]	MDM2-Luc activity [1]	luciferase response (Luc fold) in the MDM2-Luc reporter assay ([1]; compared with less potent CLK inhibitors of the series)	activity in the Rh-18 MDM2 RT-PCR gel-based confirmatory assay [2]
CC(C)n1cnc2c(Nc3cccc(Cl)c3)nc(N[C@@H]3CCCC[C@H]3N)nc21 [Compound 7, N-((1R,2R)-2-Aminocyclohexyl)-N^6-(3-Chlorophenyl)-9-Isopropyl-9H-Purine-2,6-Diamine]	120	> 1000	> 1000	400	> 1000	Active	> 1000	634					
CC(C)n1cnc2c(Nc3cc(N)cc(Cl)c3)nc(N[C@@H]3CCCC[C@@H]3N)nc21 [Compound 16, 1V-(3-Amino-5-Chlorophenyl)-N-((1R,2S)-2-Aminocyclohexyl)-9-Isopropyl-9H-Purine-2,6-Diamine]	6			17				25					
CC(C)n1ccc2c(Nc3cccc(Cl)c3)nc(NC3CCCCC3N)nc21 (racemic) [Compound 11, Racemic-N^2-Cis((2-Aminocyclohexyl)-N^4-(3-Chlorophenyl)-7-Isopropyl-7H-Pyrrolo[2,3-D]Pyrimidine-2,4-Diamine]									completely abrogated all activity				
CCn1cnc2c(Nc3cccc(Cl)c3)nc(N[C@@H]3CCCC[C@H]3N)nc21 [Compound 5, N-((1R,2R)-2-Aminocyclohexyl)-V-(3-Chlorophenyl)-9-Ethyl-9H-Purine-2,6-Diamine]	498	> 1000	546	868	> 1000	Active		> 1000		> 1000			
CC(C)n1cnc2c(Nc3cc(N)cc(Cl)c3)nc(N[C@H]3CCCNC3)nc21 [Compound 22, (S)—N^6-(3-Amino-5-Chlorophenyl)-9-Isopropyl-N^2-(Piperidin-3-Yl)-9H-Purine-2,6-Diamine]	26	> 1000	> 1000	31	> 1000		> 1000	61					
CC(C)n1cnc2c(Nc3cc(N)cc(Cl)c3)nc(N[C@H]3CCCC[C@H]3N)nc21 [Compound 17, N^6-(3-Amino-5-Chlorophenyl)-N^2-((1 S,2R)-2-Aminocyclohexyl)-9-Isopropyl-9H-Purine-2,6-Diamine]	26	> 1000	> 1000	21	> 1000		> 1000	28					
CC(C)n1cnc2c(Nc3cc(N)cc(Cl)c3)nc(N[C@H]3CCNC3)nc21 [Compound 24, (S)—N^6-(3-Amino-5-Chlorophenyl)-9-Isopropyl-N^2-(Pyrrolidin-3-Yl)-9-Purine-2,6-Diamine]	28	> 1000	> 1000	71	> 1000		> 1000	77					
CC(C)n1cnc2c(Nc3cc(N)cc(Cl)c3)nc(N[C@@H]3CCCNC3)nc21 [Compound 23, (R)—N^6-(3-Amino-5-Chlorophenyl)-9-Isopropyl-N^2-(Piperidin-3-Yl)-9H-Purine-2,6-Diamine]	34	> 1000	> 1000	66	> 1000		> 1000	102					
CCc1cnn2c(NCc3ccc[n+]([O-])c3)cc(N3CCCC[C@H]3CCO)nc12 [dinaciclib, reference compound]									inactive				
CCOC(=O)c1c(/C(C#N)=C\N)c2ccc(Cl)c(Cl)c2n1C [KH-CB19, reference compound]											modest activity		
CC(=O)Nc1cc(Cl)cc(Nc2nc(N[C@H]3CCCC[C@H]3N)nc3c2ncn3C(C)C)c1 [Compound 19, N-(3-((2-(((1S,2R)-2-Aminocyclohexyl)Amino)-9-Isopropyl-9H-Purin-6-Yl)Amino)-5-Chlorophenyl)Acetamide]	17	> 1000	> 1000	26	> 1000		> 1000	31					
COCCNc1nc(Nc2cccc(Cl)c2)c2ncn(C(C)C)c2n1 [Compound 13, N^6-(3-Chlorophenyl)-9-Isopropyl-N^2-(2-Methoxyethyl)-9H-Purine-2,6-Diamine]											dramatically reduced activity		
CC(C)n1cnc2c(Nc3cc(N)cc(Cl)c3)nc(N[C@@H]3CCCC[C@H]3N)nc21 [Compound 21, N^6-(3-Amino-5-Chlorophenyl)-N-((1R,2R)-2-Aminocyclohexyl)-9-Isopropyl-9H-Purine-2,6-Diamine]	163	> 1000	> 1000	274	> 1000		> 1000	648					
CC(=O)Nc1cc(Cl)cc(Nc2nc(N[C@@H]3CCCC[C@@H]3N)nc3c2ncn3C(C)C)c1 [Compound 18, N-(3-((2-(((1R,2S)-2-Aminocyclohexyl)Amino)-9-Isopropyl-9H-Purin-6-Yl)Amino)-5-Chlorophenyl)Acetamide]	7	611	> 1000	19	> 1000		> 1000	30					
CC(C)n1cnc2c(Nc3cc(N)cc(Cl)c3)nc(N[C@@H]3CCNC3)nc21 [Compound 25, (R)—N^6-(3-Amino-5-Chlorophenyl)-9-Isopropyl-N^2-(Pyrrolidin-3-Yl)-9H-Purine-2,6-Diamine]	92	> 1000	> 1000	118	> 1000		> 1000	299					
O=C(Nc1cc(C(F)(F)F)ccc1N1CCCCC1)c1ccncc1 [SRPIN340, reference compound]									inactive				
CC(C)n1cnc2c(Nc3cc(N)cc(Cl)c3)nc(N[C@H]3CCCC[C@@H]3N)nc21 [Compound 20, 1V-(3-Amino-5-Chlorophenyl)-M-((1 S,2S)-2-Aminocyclohexyl)-9-Isopropyl-9H-Purine-2,6-Diamine]	14	> 1000	> 1000	56	> 1000		> 1000	124					
CCn1cnc2c(Nc3cccc(Cl)c3)nc(N[C@H]3CCCC[C@@H]3N)nc21 [Compound 6, N^2-((1 S,2S)-2-Aminocyclohexyl)-V-(3-Chlorophenyl)-9-Ethyl-9H-Purine-2,6-Diamine]	190	> 1000	> 1000	371	> 1000	Active		498		> 1000			
CC(C)n1cnc2c(Nc3cccc(Cl)c3)nc(N[C@H]3CCCC[C@H]3N)nc21 [Compound 10, N^2-((1S,2R)-2-Aminocyclohexyl)-N^6-(3-Chlorophenyl)-9-Isopropyl-9H-Purine-2,6-Diamine]	26	> 1000	> 1000	74	> 1000	Active	> 1000	70				stronger luciferase response	
CCn1cnc2c(Nc3cccc(Cl)c3)nc(NC3CCCCC3NC(C)=O)nc21 (racemic) [Compound 12, Racemic N-Cis(2-((6-((3-Chlorophenyl)Amino)-9-Ethyl-9H-Purin-2-Yl)Amino)Cyclohexyl) Acetamide]									completely abrogated all activity				
CC(C)[C@H](CO)Nc1nc(Nc2cc(N)cc(Cl)c2)c2ncn(C(C)C)c2n1 [Aminopurvalanol A, reference compound]													clear activity
